This note sets out measurements from patent publication US4728640A, “Treatment of dysmenorrhea” (Roussel Uclaf, priority 1985, dated 1988).

Assay [1] deals with testicular steroidogensis. The assay is described as follows: Inhibitory activity against testicular steroidogenesis in healthy men, single intranasal dose. It is filed as in vivo. Conditions: for steroid/testosterone level on the fourth day after administration: fourth day (until 6th day). Here is the method:
The inhibitory activity of [D Ser (tbu)^6 of des Gly NH2^10 ] LH-RH ethylamide (described in German application Ser. No. 2,438,350) against testicular steroidogensis in men in good health was determined on men in good health aged 30 to 40 years. The said product was administered intranasally at a dose of 500 μg in a few drops of distilled water at 8 A.M. on the third day of the test. For 2 days prior to the treatment and for 6 days after the treatment, samples of blood were taken daily at 8 A.M., 3 P.M. and 10 P.M. On the day of administration of the LH-RH agonist, blood samples were taken at 11 A.M. and 6 P.M.
The seric concentrations of LH and FSH were measured by radioimmuno-logic dosages with double antibodies and the antibodies for measuring LH and FSH were furnished by the National Pituitary Agency of N.I.H. in Bethesda, Md. The seric concentrations of steroids was measured by radioimmuno-logic dosages in which one ml of serum was extracted with ether and the steroids were separated on a LH-20 column before measuring with radioimmuno-logic dosages. The radioimmuno-logic dosage results were determined by a program derived from model II of Rodbard et al [Second Karolinska Symposium on Research Methods in Reproductive Endrocrinology, Diczfalusky Editor, Copenhague (1970), p. 79-103]. The statistical significance was determined by the "multiple level test" of Duncan-Kramer [Kramer, Biometrics, Vol 12 (1956), p. 307]. The results are shown in the graphs on sheet 1 of the Figures filed herewith.

In assay [2] the test system is testicular steriodogenosis. The assay is described as follows: Inhibitory activity on testicular steroidogenesis in a patient with prostate cancer, intranasal twice a day. It is filed as in vivo, human. Particulars: 500 μg intranasally twice a day. An excerpt:
The inhibitory activity of [D Ser (tbu)^6 des Gly NH2^10 ] […] The results are reported in the graphs of sheet 2 of the Figures.

The next assay relates to ovarian steroidogenosis. Put plainly: Inhibitory activity on ovarian steroidogenesis in women, intranasal. It is filed as in vivo. Conditions: for reduction of seric levels of progesterone compared to the controls: typical subject (sheet 3). The procedure: The inhibitory activity of [D Ser (tbu)^6 des Gly NH2^10 ] LH-RH ethylamide on ovarian steroidogenosis in women was determined on 6 women aged 26 to 35 years with normal and regular menstrual cycles and without prior endocrinal or gynecological problems. […] Two drops of a solution containing 500 μg of [D Ser (tbu)^6 des Gly NH2^10 ] LH-RH ethylamide were deposited on each nostril at 8 A.M. and 5 P.M. of a day between the 4th and 9th day after the peak of LH-day 0. Daily blood samples were taken between 4 and 6 P.M. to measure seric levels of LH, FSH, progesterone and estradiol which were determined by radioimmuno-logictests with double antibodies. The antibodies to measure LH and FSH were furnished by the National Pituitory Agency of N.I.H. of Bethesda, Md.
Estradiol and progesterone were measured with highly specific antibodies developed against 7-(O-carboxymethyl)-oxime of estradiol and 12-(O-carboxymethyl)-oxime of progesterone, respectively [3H]17β-estradiol and ^125 I-progesterone-12-[O-carboxymethyl)-oxime] used as tracers. The serum was extracted with benzene and the steroids were separated with a LH-20 column before the determination. The radioimmunological results were exploited by the program derived from model II of Rodbard and Lewald as in Example 1 and the statistical significance was measured by the multiple level test of Ducan-Kramer of Example 1. The results are shown in the graphs of sheets 3 to 5 of the Figures.

Setting [3] is: human, single intranasal dose 500 μg.
[4] abbreviates: men, intranasal 500 μg, 3rd day following administration.

Consider `CCNC(=O)[C@@H]1CCCN1C(=O)[C@H](CCCNC(=N)N)NC(=O)[C@H](CC(C)C)NC(=O)[C@@H](COC(C)(C)C)NC(=O)[C@H](Cc1ccc(O)cc1)NC(=O)[C@H](CO)NC(=O)[C@H](Cc1c[nH]c2ccccc12)NC(=O)[C@H](Cc1c[nH]cn1)NC(=O)[C@@H]1CCC(=O)N1` [[D Ser (tbu)^6 des Gly NH2^10] LH-RH ethylamide], for which the “duration of the drop of seric levels of testicular steroids (testosterone and its precursors)” value in assay [1] (setting [3]) was found to be 3 days. Moreover, in assay [1] (human, single intranasal dose 500 μg, 3rd day following administration), the “diminution of the level of testosterone” value is given as 50%. Further, the “steroid/testosterone level on the fourth day after administration” value in assay [1] (setting [3]) is recorded as “returned to normal”; in assay [1] (human, single intranasal dose 500 μg, listed as the peptide), “return to normal levels”. The “LH and FSH plasmatic levels” value in assay [1] (men, intranasal 500 μg) was “increase”. Besides, in assay [1] (setting [4]), the “concentration of 17-OH-progesterone relative to initial control values” is reported as 40%. Moreover, the “concentration of testosterone relative to initial control values” in assay [1] (setting [4]) stood at 50%. Further, in assay [1] (men, intranasal 500 μg, day of treatment), the “seric concentration of pregnenolone, 17-OH-pregnenolone, progesterone, 17-OH-progesterone, Δ5-androstene-3β,17β-diol and testosterone” value was “increased”. Besides, the “level of androgenic steroids” value in assay [2] is “diminution”. For the same molecule, in assay [2] (two weeks of treatment), the level of testosterone result is given as “stabilized at a very low level”. The “level of seric progesterone, course” value was “return to normal” with ovarian steroidogenosis (2 cycles of post-treatment) and “accelerated diminution” in the assay with ovarian steroidogenosis (2 cycles of treatment). For the same molecule, in the assay on ovarian steroidogenosis (12 cycles of treatment (sheet 5), scale 13 to 127%), the “reduction of the level of progesterone compared to the controls” value stood at 46%. Also, the “progesterone level as % of pretreatment cycles (base 100%)” value with ovarian steroidogenosis (cycles of post-treatment (12 cycles)) was determined as 99%; with ovarian steroidogenosis (cycles of treatment (12 cycles)) it was 46%. Moreover, the “reduction of seric levels of progesterone compared to the controls” value in the assay with ovarian steroidogenosis (first cycle of treatment) was determined as 13%; with ovarian steroidogenosis (second cycle of treatment), 34%.
